Measured values reported in article PMC3776838, “Detection of Phospho-Sites Generated by Protein Kinase CK2 in CFTR: Mechanistic Aspects of Thr1471 Phosphorylation” (PLoS ONE, 2013).
Entries after “also recorded” stand apart in the source; their conditions may differ.

How the values were obtained:
[1] = target: T1, CK2 holoenzyme (CK2 α2β2) (Homo sapiens, UniProt P67870+P68400); assay: Phosphorylation of CFTR C-terminal peptides by CK2 holoenzyme (33P incorporation); type: biochemical; settings: pH 7.5, 50 µM [γ-33P]ATP, 10 min, 37°C; for Kprime / Khalf / Vmax: Figure 3C, allosteric (sigmoidal) model, GraphPad Prism; for Kprime: Kprime = Khalf^h, not equal to Km unless h = 1; for phosphorylation by CK2 holoenzyme: Tricine-SDS-PAGE, autoradiography, Figures 2A and 3
T1 construct: made in house; host or cells: Escherichia coli
T1 sequence (P68400 whole entry): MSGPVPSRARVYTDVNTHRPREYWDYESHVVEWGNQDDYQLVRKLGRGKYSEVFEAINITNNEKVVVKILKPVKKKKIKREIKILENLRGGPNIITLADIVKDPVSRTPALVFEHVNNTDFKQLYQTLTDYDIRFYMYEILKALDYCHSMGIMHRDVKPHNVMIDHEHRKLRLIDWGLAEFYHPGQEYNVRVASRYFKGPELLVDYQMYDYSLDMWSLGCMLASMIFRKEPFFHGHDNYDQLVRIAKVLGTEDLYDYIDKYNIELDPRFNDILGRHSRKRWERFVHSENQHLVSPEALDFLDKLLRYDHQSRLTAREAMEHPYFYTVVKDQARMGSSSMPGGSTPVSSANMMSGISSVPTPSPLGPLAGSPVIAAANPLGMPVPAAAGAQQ
T1 sequence (P67870 whole entry): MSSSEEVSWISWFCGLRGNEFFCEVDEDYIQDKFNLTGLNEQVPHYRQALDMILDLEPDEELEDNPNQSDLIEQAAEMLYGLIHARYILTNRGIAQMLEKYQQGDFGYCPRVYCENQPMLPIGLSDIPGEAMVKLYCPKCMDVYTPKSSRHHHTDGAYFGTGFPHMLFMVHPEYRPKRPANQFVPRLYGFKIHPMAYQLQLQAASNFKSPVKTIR
Protocol: (§1) Human CK2, both the α-catalytic subunit and the α2β2-holoenzyme were expressed in Escherichia coli. CK2α2β2 holoenzyme was reconstituted by mixing pellets expressing CK2α and CK2β independently. Cells were lysed by French press at 4°C in Tris/HCl 25 mM, pH 8, NaCl 0.4 M, DTT 1 mM, proteases inhibitors cocktail (Roche). The soluble fraction obtained after 30 min centrifugation at 15000 g was applied on Heparin-Sepharose and the proteins were separated using a gradient elution (0.4–1 M NaCl). Fractions containing CK2 were further purified by size-exclusion chromatography using a buffer composed by Tris/HCl 25 mM, pH 8, NaCl 0.5 M, DTT 1 mM.
(§2) Recombinant mouse full length CFTR (mCFTR) was cloned, expressed and purified as described in [20]. A 42-mer peptide reproducing the C-terminal tail of human CFTR (residues 1439–1480) was expressed in Escherichia coli with an N-terminal His tag and purified using affinity chromatography (Talon) followed by cleavage of the His tag by thrombin. Further details are given in the Material S1.
Synthetic peptide encompassing the last 20 residues of human CFTR C-terminal domain ([…], residues 1461–1480) was obtained by solid phase peptide synthesis method using a multiple peptide synthesizer (SyroII, MultiSynTech GmbH) on p-Benzyloxybenzyl alcohol resin (100–200 mesh) HMP resin (Novabiochem). The fluoren-9-ylmethoxycarbonyl (Fmoc) strategy was used throughout the peptide chain assembly, utilizing O-(7-Azabenzotriazol-1-yl)-N,N,N′,N′-tetramethyluronium hexafluorophosphate (HATU) as coupling reagent. The side-chain protected amino acid building blocks used were: N-α-Fmoc-Nω-(2,2,4,6,7-pentamethyldihydrobenzofuran-5-sulfonyl)-L-arginine, N-α-Fmoc-γ-tert-butyl-L-glutamic acid, N-α-Fmoc-β-tert-butyl-L-aspartic acid, N-α-Fmoc-O-tert-butyl-L-threonine, N-α-Fmoc-Nε-(tert-butyloxycarbonyl)-L-lysine, N-α-Fmoc-N-γ-trityl-L-glutamine. Cleavage of the peptide was performed by reacting the peptidyl-resin with a mixture containing TFA/ethanedithiol/phenol 5% for 2.5 h. Crude peptide were purified by a preparative reverse phase HPLC. Molecular mass of the peptide were confirmed by mass spectroscopy on a MALDI TOF-TOF mass spectrometer (model 4800– AB Sciex). The purity (>90%) was evaluated by analytical reverse phase HPLC.
(§3) Peptides derived from human CFTR C-terminal region were phosphorylated by incubation in a 20-µl volume containing 50 mM Tris/HCl, pH 7.5, 10 mM MgCl2, 100 mM NaCl, and 50 µM [γ-^33P]ATP (specific radioactivity 1,500–2,000 cpm/pmol). The reaction was started by the addition of the indicated protein kinases. The reaction mixtures were incubated for 10 minutes at 37°C and stopped by the addition of 2× concentrated Tricine sample buffer (450 mM Tris HCl, pH 8.45, 12% (v/v) glycerol, 4% (w/v) SDS, 0.0025% (w/v) Coomassie Blue G, 0.0025% (w/v) Phenol Red and 105 mM DTT). Samples were separated on Tricine-SDS-PAGE following the Schägger’s protocol in a running buffer composed of 100 mM Tris/HCl, pH 8.3, 100 mM Tricine, 0.1% (w/v) SDS. ^33P incorporation was evaluated by gels autoradiography on PerkinElmer’s Cyclone Plus Storage Phosphor System. Initial rate data were analyzed with the program Prism (GraphPad Software, La Jolla, CA).

CK2 α-catalytic subunit = assay: Phosphorylation of the 42-mer CFTR peptide by isolated CK2 α-catalytic subunit; type: biochemical, human; settings: 0.4 µg peptide, pH 7.5, 50 µM [γ-33P]ATP, 10 min, 37°C, autoradiography, Figure 2A
Protocol: as §1
Recombinant mouse full length CFTR (mCFTR) was cloned, expressed and purified as described in [20]. […]
(§4) Peptides derived from human CFTR C-terminal region were phosphorylated by incubation in a 20-µl volume containing 50 mM Tris/HCl, pH 7.5, 10 mM MgCl2, 100 mM NaCl, and 50 µM [γ-^33P]ATP (specific radioactivity 1,500–2,000 cpm/pmol). […] Samples were separated on Tricine-SDS-PAGE following the Schägger’s protocol in a running buffer composed of 100 mM Tris/HCl, pH 8.3, 100 mM Tricine, 0.1% (w/v) SDS. ^33P incorporation was evaluated by gels autoradiography on PerkinElmer’s Cyclone Plus Storage Phosphor System. Initial rate data were analyzed with the program Prism (GraphPad Software, La Jolla, CA).

PLK2 = assay: Phosphorylation of the 42-mer CFTR peptide by PLK2; type: biochemical; settings: same conditions as with CK2 holoenzyme, Figure 2B
Description: (§5) CK1 isoforms and PLK 2 and 3 were obtained as described in [21], and [22], respectively.
as §2
as §4, with “cpm/pmol). The reaction was started by the addition of the indicated protein kinases.” for “cpm/pmol).”

PLK3 = assay: Phosphorylation of the 42-mer CFTR peptide by PLK3; type: biochemical; settings: same conditions as with CK2 holoenzyme, Figure 2B
Description: as §5, §2
as §4, with “cpm/pmol). The reaction was started by the addition of the indicated protein kinases.” for “cpm/pmol).”

CK1 = assay: Phosphorylation of the 42 amino acid CFTR peptide by CK1; type: biochemical; settings: not shown; listed as 42 amino acid peptide
Description: as §5, §2
as §4, with “cpm/pmol). The reaction was started by the addition of the indicated protein kinases.” for “cpm/pmol).”

GCK/FAM20C = assay: Phosphorylation of the 42 amino acid CFTR peptide by Golgi apparatus casein kinase; type: biochemical; settings: not shown; listed as 42 amino acid peptide
Protocol: as §2, §3

[2] = test system: WT, WT/T1471A or Phe508delCFTR; assay: CFTR bands B and C in BHK cells exposed to CHX or Brefeldin A; type: cell-based, human
Protocol: Baby hamster kidney cells (BHK) stably expressing human CFTR (hCFTR) either wild type (WT), or Phe508del, or WT T1471A were growth to reach 70–80% confluency. After 2 h-long treatment with 100 µg/mL cyclohexamide, cells were washed with PBS and incubated with 2 µM CX4945 or its vehicle for the indicated time. At each time-point cells were washed with ice-cold PBS, scraped from the plates, pelleted by centrifugation (1200 g for 5 min at room tempertaure) and lysed in a buffer containing 1% (v/v) Nonidet P40, 50 mM Tris/HCl (pH 7.5) and 150 mM NaCl with fresh protease inhibitor tablets (Roche), 1 µM Okadaic acid (Alexis) and phosphatases inhibitors cocktails 2 and 3 (Sigma). Cells were lysed by incubation on ice for 30 min and then the lysates were cleared by centrifugation at 17000 g for 30 min at 4°C. The supernatant was collected and subjected to protein concentration quantification.
Western blot analysis was performed as described in [14] using a modified Laemmli buffer containing 105 mM dithiothreitol (final concentration) to enhance the solubilization of CFTR. 20–30 µg of total proteins were separated on 4–12% precast NuPage® Bis-Tris gradient gels (Invitrogen) according to the manufacturer’s instructions and transferred on to Optitran BA-S 83 nitrocellulose membranes (Whatman) with a semi-dry blotter (Biometra) for 1 h at 150 mA. Membranes were saturated for 1 h with 5% skimmed milk in Tris-buffered saline (TBS) containing 0.2% Tween 20. Immunoblots were developed by enhanced chemiluminescence, detected on Kodak Image Station 440 cf and analyzed by the Kodak 1D image software. Tubulin was used as loading control.
Supplementary file pone.0074232.s004.tif: Figure S4 BHK cells expressing WT, WT/T1471A or Phe508delCFTR were exposed to either cycloheximide (CHX, 100 µg/ml) or Brefeldin A (BFA, 200 ng/ml). […] [a] Glozman R, Okiyoneda T, Mulvihill CM, Rini JM, Barriere H, Lukacs GL (2009) N-glycans are direct determinants of CFTR folding and stability in secretory and endocytic membrane traffic. J. Cell Biol. 184, 847–862. (TIF) Click here for additional data file.

[3] = listed as 42 amino acid peptide
[4] = listed as 42 amino acid-long recombinant fragment
[5] = CHX 100 µg/ml, 2 h, Figures 5 and S4

## CFTR[1439-1480]: 42-mer peptide reproducing the C-terminal tail of human CFTR (residues 1439–1480), expressed in Escherichia coli with N-terminal His tag, cleaved by thrombin (QAISPSDRVKLFPHRNSSKCKSKPQIAALKEETEEEVQDTRL; left off: His tag, N-terminal, cleaved)
[1]
  Kprime: 3.13 µM
  Khalf: 1.49 µM
  Vmax: 90.5 DLUx10^-6
[1]; [3]
  phosphorylation by CK2 holoenzyme: readily phosphorylated at Thr1471
[1]; [4]
  phosphorylation by CK2 holoenzyme: readily phosphorylated by CK2 holoenzyme
[1]; listed as recombinant fragment of human CFTR
  phosphorylation by CK2 holoenzyme: readily phosphorylated, with favorable kinetics, at Thr1471 by CK2 holoenzyme
CK2 α-catalytic subunit; [3]
  phosphorylation by isolated CK2 catalytic α-subunit: neither by its isolated catalytic subunit
CK2 α-catalytic subunit; [4]
  phosphorylation by isolated CK2 catalytic α-subunit: not by the isolated catalytic α-subunit alone
PLK2
  phosphorylation by PLK2: very low as compared to that obtained with CK2 holoenzyme
PLK2; [3]
  phosphorylation by PLK2: nor by other acidophilic Ser/Thr kinases (CK1, PLK2/3, GCK/FAM20C); also recorded: a weak phosphorylation was observed
PLK3
  phosphorylation by PLK3: very low as compared to that obtained with CK2 holoenzyme
PLK3; [3]
  phosphorylation by PLK3: nor by other acidophilic Ser/Thr kinases (CK1, PLK2/3, GCK/FAM20C); also recorded: a weak phosphorylation was observed
CK1
  phosphorylation by CK1: nor by other acidophilic Ser/Thr kinases (CK1, PLK2/3, GCK/FAM20C); also recorded: unable to phosphorylate the 42 amino acid peptide
GCK/FAM20C
  phosphorylation by GCK/FAM20C: nor by other acidophilic Ser/Thr kinases (CK1, PLK2/3, GCK/FAM20C); also recorded: unable to phosphorylate the 42 amino acid peptide

## C[C@@H]1C[C@@H]([C@H](O)CC2CC(=O)NC(=O)C2)C(=O)[C@@H](C)C1 [CHX, cycloheximide]
[2]; [5]
  effect on CFTR band B (immature core-glycosylated, ER-resident): fast and almost complete disappearance of band B; also recorded: attenuation/disappearance of the ER-resident band B of CFTR
  effect on CFTR band C (mature fully glycosylated): much slower; also recorded: the fully mature band C is not affected by CHX treatment

## KPQIAALKEETEEEVQDTRL [CFTR[1461-1480], Synthetic peptide encompassing the last 20 residues of human CFTR C-terminal domain]
[1]
  Kprime: 1430 µM
  Khalf: 1290 µM
  Vmax: 1477 DLUx10^-6
[1]; listed as shorter synthetic peptide encompassing Thr1471
  phosphorylation by CK2 holoenzyme: also phosphorylated by CK2 albeit with lower efficiency
[1]; listed as synthetic peptide encompassing the last 20 residues of hCFTR
  phosphorylation by CK2 holoenzyme: can also be phosphorylated by CK2 holoenzyme, although much less efficiently

## C[C@H]1CCC/C=C/[C@@H]2C[C@H](O)C[C@H]2[C@H](O)/C=C/C(=O)O1 [Brefeldin A]
[2]; Brefeldin A 200 ng/ml, Figure S4
  effect on CFTR band B (immature core-glycosylated, ER-resident): opposite effects on the fate of band B; also recorded: band B increases
